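96-well plates; 48 h exposure; 5 concentrations. Endpoints by linear interpolation between flanking doses. Not reached: highest tested concentration assigned. GI50 = concentration required for 50% inhibition of growth. TGI denotes the concentration required for complete inhibition of growth.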
Assays:
Experiment in all cases: NCI tumour cell line growth inhibition, 48 h
786-0 renal = tested on: 786-0 renal
A498 renal = tested on: A498 renal
A549 NSCLC = tested on: A549 NSCLC
ACHN renal = tested on: ACHN renal
BT-549 breast = tested on: BT-549 breast
CAKI-1 renal = tested on: CAKI-1 renal
CCRF-CEM leukemia = tested on: CCRF-CEM leukemia
COLO 205 colon = tested on: COLO 205 colon
DU-145 prostate = tested on: DU-145 prostate
EKVX NSCLC = tested on: EKVX NSCLC
HCC-2998 colon = tested on: HCC-2998 colon
HCT-116 colon = tested on: HCT-116 colon
HCT-15 colon = tested on: HCT-15 colon
HL-60(TB) leukemia = tested on: HL-60(TB) leukemia
HOP-62 NSCLC = tested on: HOP-62 NSCLC
HOP-92 NSCLC = tested on: HOP-92 NSCLC
HS 578T breast = tested on: HS 578T breast
HT29 colon = tested on: HT29 colon
IGROV1 ovarian = tested on: IGROV1 ovarian
K-562 leukemia = tested on: K-562 leukemia
KM12 colon = tested on: KM12 colon
LOX IMVI melanoma = tested on: LOX IMVI melanoma
M14 melanoma = tested on: M14 melanoma
MALME-3M melanoma = tested on: MALME-3M melanoma
MCF7 breast = tested on: MCF7 breast
MDA-MB-231 breast = tested on: MDA-MB-231 breast
MDA-MB-435 = tested on: MDA-MB-435
MOLT-4 leukemia = tested on: MOLT-4 leukemia
NCI-H226 lung = tested on: NCI-H226 lung
NCI-H23 lung = tested on: NCI-H23 lung
NCI-H460 lung = tested on: NCI-H460 lung
NCI-H522 lung = tested on: NCI-H522 lung
NCI/ADR-RES ovarian = tested on: NCI/ADR-RES ovarian
OVCAR-3 ovarian = tested on: OVCAR-3 ovarian
OVCAR-4 ovarian = tested on: OVCAR-4 ovarian
OVCAR-5 ovarian = tested on: OVCAR-5 ovarian
OVCAR-8 ovarian = tested on: OVCAR-8 ovarian
PC-3 prostate = tested on: PC-3 prostate
RPMI-8226 leukemia = tested on: RPMI-8226 leukemia
RXF 393 renal = tested on: RXF 393 renal
SF-268 CNS = tested on: SF-268 CNS
SF-295 CNS = tested on: SF-295 CNS
SF-539 CNS = tested on: SF-539 CNS
SK-MEL-2 melanoma = tested on: SK-MEL-2 melanoma
SK-MEL-28 melanoma = tested on: SK-MEL-28 melanoma
SK-MEL-5 melanoma = tested on: SK-MEL-5 melanoma
SK-OV-3 ovarian = tested on: SK-OV-3 ovarian
SN12C renal = tested on: SN12C renal
SNB-19 CNS = tested on: SNB-19 CNS
SNB-75 CNS = tested on: SNB-75 CNS
SR leukemia = tested on: SR leukemia
SW-620 colon = tested on: SW-620 colon
T-47D breast = tested on: T-47D breast
TK-10 renal = tested on: TK-10 renal
U251 CNS = tested on: U251 CNS
UACC-257 melanoma = tested on: UACC-257 melanoma
UACC-62 melanoma = tested on: UACC-62 melanoma
UO-31 renal = tested on: UO-31 renal
MDA-N = tested on: MDA-N

COc1cc2c3c(n(C)c(=O)c2cc1OC)-c1cc2c(cc1/C3=C\CNCCCN)OCO2
GI50 (786-0 renal): 0.367 µM
TGI (786-0 renal): 6.07 µM
GI50 (A498 renal): 3.84 µM
TGI (A498 renal): 12.1 µM
GI50 (A549 NSCLC): 1.43 µM
TGI (A549 NSCLC): > 25.1 µM
GI50 (ACHN renal): 0.271 µM
TGI (ACHN renal): 2.07 µM
GI50 (BT-549 breast): 1.91 µM
TGI (BT-549 breast): 5.22 µM
GI50 (CAKI-1 renal): 0.848 µM
TGI (CAKI-1 renal): 16 µM
GI50 (CCRF-CEM leukemia): 0.0239 µM
TGI (CCRF-CEM leukemia): 0.15 µM
GI50 (COLO 205 colon): 0.232 µM
TGI (COLO 205 colon): 8.71 µM
GI50 (DU-145 prostate): 1.15 µM
TGI (DU-145 prostate): 12.8 µM
GI50 (EKVX NSCLC): 2.85 µM
TGI (EKVX NSCLC): 12.2 µM
GI50 (HCC-2998 colon): 0.501 µM
TGI (HCC-2998 colon): 1.99 µM
GI50 (HCT-116 colon): 0.107 µM
TGI (HCT-116 colon): 4.19 µM
GI50 (HCT-15 colon): 3.13 µM
TGI (HCT-15 colon): 17.7 µM
GI50 (HL-60(TB) leukemia): 0.171 µM
TGI (HL-60(TB) leukemia): 0.782 µM
GI50 (HOP-62 NSCLC): 0.625 µM
TGI (HOP-62 NSCLC): 10.9 µM
GI50 (HOP-92 NSCLC): 0.174 µM
TGI (HOP-92 NSCLC): 1.27 µM
GI50 (HS 578T breast): 1.28 µM
TGI (HS 578T breast): 6.06 µM
GI50 (HT29 colon): 0.376 µM
TGI (HT29 colon): > 100 µM
GI50 (IGROV1 ovarian): 0.284 µM
GI50 (K-562 leukemia): 0.168 µM
GI50 (KM12 colon): 0.359 µM
TGI (KM12 colon): 3.93 µM
GI50 (LOX IMVI melanoma): 0.162 µM
TGI (LOX IMVI melanoma): 2.23 µM
GI50 (M14 melanoma): 0.585 µM
TGI (M14 melanoma): 5.31 µM
GI50 (MALME-3M melanoma): 0.144 µM
TGI (MALME-3M melanoma): 0.591 µM
GI50 (MCF7 breast): 1.04 µM
TGI (MCF7 breast): 16.5 µM
GI50 (MDA-MB-231 breast): 0.333 µM
TGI (MDA-MB-231 breast): 2.01 µM
GI50 (MDA-MB-435): 1.02 µM
TGI (MDA-MB-435): 5.72 µM
GI50 (MOLT-4 leukemia): 0.0118 µM
TGI (MOLT-4 leukemia): 0.0502 µM
GI50 (NCI-H226 lung): 0.0753 µM
TGI (NCI-H226 lung): 0.797 µM
GI50 (NCI-H23 lung): 0.437 µM
TGI (NCI-H23 lung): 3.15 µM
GI50 (NCI-H460 lung): 0.75 µM
TGI (NCI-H460 lung): 12.9 µM
GI50 (NCI-H522 lung): 0.348 µM
GI50 (NCI/ADR-RES ovarian): 5.26 µM
TGI (NCI/ADR-RES ovarian): > 88.5 µM
GI50 (OVCAR-3 ovarian): 1.37 µM
TGI (OVCAR-3 ovarian): 7.66 µM
GI50 (OVCAR-4 ovarian): 3.42 µM
TGI (OVCAR-4 ovarian): 36.6 µM
GI50 (OVCAR-5 ovarian): 1.28 µM
TGI (OVCAR-5 ovarian): 18.9 µM
GI50 (OVCAR-8 ovarian): 0.13 µM
TGI (OVCAR-8 ovarian): 1.05 µM
GI50 (PC-3 prostate): 0.272 µM
TGI (PC-3 prostate): 3.16 µM
GI50 (RPMI-8226 leukemia): 0.414 µM
TGI (RPMI-8226 leukemia): 2.15 µM
GI50 (RXF 393 renal): 1.69 µM
TGI (RXF 393 renal): 7.1 µM
GI50 (SF-268 CNS): 0.762 µM
TGI (SF-268 CNS): 10.8 µM
GI50 (SF-295 CNS): 1.08 µM
TGI (SF-295 CNS): 15.9 µM
GI50 (SF-539 CNS): 0.834 µM
TGI (SF-539 CNS): 7.29 µM
GI50 (SK-MEL-2 melanoma): 2.33 µM
GI50 (SK-MEL-28 melanoma): 2.14 µM
TGI (SK-MEL-28 melanoma): 39.6 µM
GI50 (SK-MEL-5 melanoma): 1.03 µM
TGI (SK-MEL-5 melanoma): 2.71 µM
GI50 (SK-OV-3 ovarian): 1.26 µM
TGI (SK-OV-3 ovarian): > 88.2 µM
GI50 (SN12C renal): 0.115 µM
TGI (SN12C renal): 1.07 µM
GI50 (SNB-19 CNS): 0.261 µM
TGI (SNB-19 CNS): 10.4 µM
GI50 (SNB-75 CNS): 0.923 µM
TGI (SNB-75 CNS): 9.47 µM
GI50 (SR leukemia): 0.0203 µM
TGI (SR leukemia): 0.618 µM
GI50 (SW-620 colon): 0.222 µM
TGI (SW-620 colon): 3.94 µM
TGI (T-47D breast): 3.02 µM
GI50 (TK-10 renal): 0.981 µM
TGI (TK-10 renal): 7.47 µM
GI50 (U251 CNS): 0.0717 µM
TGI (U251 CNS): 1.58 µM
GI50 (UACC-257 melanoma): 0.907 µM
TGI (UACC-257 melanoma): 2.76 µM
GI50 (UACC-62 melanoma): 0.214 µM
TGI (UACC-62 melanoma): 1.12 µM
GI50 (UO-31 renal): 6.96 µM
TGI (UO-31 renal): > 100 µM

CC(C)(C)[Si](C)(C)OCC1OC(n2cc(I)c(N)nc2=O)C(O[Si](C)(C)C(C)(C)C)C1O[Si](C)(C)C(C)(C)C (configuration not stated)
TGI (786-0 renal): 9.09 µM
TGI (A549 NSCLC): 20.8 µM
TGI (ACHN renal): 22 µM
TGI (COLO 205 colon): 36.3 µM
TGI (DU-145 prostate): 28.6 µM
TGI (EKVX NSCLC): 38.4 µM
TGI (HCT-116 colon): 24 µM
TGI (HCT-15 colon): 39.9 µM
TGI (HOP-62 NSCLC): 27.6 µM
TGI (HOP-92 NSCLC): 37.1 µM
TGI (HS 578T breast): 36.6 µM
TGI (HT29 colon): 20.3 µM
TGI (IGROV1 ovarian): 20.6 µM
TGI (LOX IMVI melanoma): > 100 µM
TGI (M14 melanoma): 16.9 µM
TGI (MALME-3M melanoma): 34.6 µM
TGI (MDA-MB-231 breast): 31.7 µM
TGI (MDA-N): 26.9 µM
TGI (MOLT-4 leukemia): 10.6 µM
TGI (NCI-H460 lung): 22 µM
TGI (NCI-H522 lung): 16.5 µM
TGI (NCI/ADR-RES ovarian): > 100 µM
TGI (OVCAR-3 ovarian): 24 µM
TGI (OVCAR-8 ovarian): 30.6 µM
TGI (PC-3 prostate): 25 µM
TGI (SF-268 CNS): 28.8 µM
TGI (SF-295 CNS): 11.2 µM
TGI (SK-MEL-2 melanoma): 25.7 µM
TGI (SK-MEL-5 melanoma): 23.2 µM
TGI (SK-OV-3 ovarian): 32.8 µM
TGI (SN12C renal): 26.6 µM
TGI (SNB-75 CNS): 28 µM
TGI (SR leukemia): 81.7 µM
TGI (SW-620 colon): > 100 µM
TGI (UACC-257 melanoma): 26.7 µM
TGI (UACC-62 melanoma): 23.7 µM

From PubChem BioAssay (NCI)
